According to PMC6278385, “Preclinical Pharmacokinetics of C118P, a Novel Prodrug of Microtubules Inhibitor and Its Metabolite C118 in Mice, Rats, and Dogs” (Molecules, 2018):
Like-named read-outs stand apart in the source and are kept apart here.

Key:
[1] = Plasma protein binding by ultrafiltration; assay type: in vitro ADME, Sprague-Dawley rats; conditions: Sprague-Dawley, rat plasma, read-out: fu (fraction unbound);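 note: fu expressed in percent not as a fraction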
Method: Both C118P and C118 were stable in the plasma with EDTA as anticoagulant. The non-specific binding to the ultrafilter membrane was negligible. The extent of plasma protein binding was reported as a fraction unbound (fu, %) value which was calculated using the formula fu = PF/TC × 100%, where TC is test compound (C118P or C118) concentration in sample before ultrafiltration, and PF is the test compound concentration in the ultrafiltrate (Table 1).
Plasma protein binding of C118P and C118 were determined by ultrafiltration at four concentrations (C118P: 400, 4000, 40,000, and 400,000 ng/mL, C118: 20, 200, 2000, and 20,000 ng/mL) in pooled plasma from Sprague-Dawley rats, beagle dogs, and humans. Stock solutions of C118P and C118 dissolved in methanol were diluted with blank plasma to achieve the test concentrations (the methanol volume is less than 10% of the plasma). The plasma was incubated for 1 h in a water bath at 37 °C. The total concentration of C118P and C118 of spiked plasma (TC) was analyzed by previously described methods. Ultrafiltration was performed with activated high speed centrifugal tubes (Millipore, Burlington, MA, USA). Plasma samples (0.4 mL) were added to the upper layer of the high speed centrifugal tubes, and then centrifuged at 12,000 g for 10 min. The concentration of unbound C118P and C118 in filtrate (PF) was similarly determined by the previously described methods. The percentage of free fraction (fu) of C118P and C118 was calculated as follows: fu = (PF/TC) × 100%.

[2] = Metabolic stability in liver microsomes; assay type: in vitro ADME, human
Method: The in vitro metabolic stability of C118P and C118 were estimated in mice, rat, dog, monkey, and human liver microsomes (Research Institute for Liver Diseases Co. Ltd (Shanghai, China)). The incubation mixture contains C118P or C118, NADP (1.0 mM), G-6-P (10 mM), PDH (2 units/mL), MgCl2 (10 mM), and liver microsomes (mice, rats, dogs, monkeys, or humans, 1.0 mg protein/mL) in phosphate buffer. A total of 200 μL of the mixture was removed and quenched with 600 μL acetonitrile in an ice bath at 0, 15, 30, 60, 120, and 240 min after the addition of NADPH.
CLint, in vitro (the in vitro intrinsic clearance, Equation (1)) was calculated from the t1/2 of C118 disappearance, where Cprotein is the protein concentration during the incubation, and t1/2 was determined by the slope (k) of the log-linear regression analysis of the concentration versus time profiles; thus, t1/2 = ln2/k. […] The in vivo hepatic clearance (CLH, Equation (3)) was then calculated by using CLint and hepatic blood flow, Q ([…] mL·min^−1·kg^−1 in rats, dogs, monkey, and humans, respectively), in the well-stirred liver model disregarding all binding. The hepatic extraction ratio was calculated as CLH divided by Q. CLint, in vitro = (0.693/t1/2) × (1/Cprotein)(1) CLint = CLint, in vitro × (mg protein/g liver weight) × (gliver weight/kg body weight)(2) CLH = (Q × CLint)/(Q + CLint)(3)

[3] = Tissue distribution in rats; assay type: in vivo; conditions: for concentration at 10 min: both sexes, Sprague-Dawley (SD), rat, iv, 10 min after i.v. 20 mg/kg of C118P
Method: Eighteen rats (weight 220–260 g) with half males and half females were randomly assigned to there groups to carry out a tissue distribution study and fasted overnight. Blood and tissue samples, including the brain, skin, muscle, fat, testicle/ovary, pancreas, spleen, kidney, stomach, small intestine, heart, liver, lung, thymus, and thighbone were collected at 10 min, 1, and 4 h after intravenous administration (20 mg/kg). Blood was centrifuged for plasma samples. Tissue samples were rinsed with water to remove the blood and blotted dry with filter paper. An accurately-weighed amount of the tissue sample (0.2 g) or the entire organ for which weight less than 0.2 g was individually homogenized with EDTA solution (40 mg/mL, 2.0 mL). The left thigh bone was crushed and then soaked overnight in methanol-EDTA solution (1:1, v/v). A volume of 50 μL of homogenate or soak solution was prepared by protein precipitation and determined by the method described above. Tissue weights were used for calculating the concentrations (ng/g) of C118P and C118 in tissues.

[4] = Tissue distribution in tumor bearing mice; assay type: in vivo, nude mice (BALB/cA) implanted with NCI-H460 tumor
Method: The nude mice (BALB/cA) implanted with NCI-H460 tumor were provided by Shanghai Institute of Materia Medica. A total of 36 mice were divided into 9 groups with four animals in each group. After fasting overnight with free access to water, the mice were treated with 75 mg/kg C118P by i.v. The blood samples were collected at 2, 10, 20, 40 min, 1, 2, 4, 8, 12 h after treatment and the mice were anaesthetized and decapitated to obtain the blood and tumor tissue. Blood, brain, muscle, ovary, and lung from mice in the PK study were collected at 10 min, 1, 4, and 12 h. Tissues were cleaned by absorbent filter paper to remove the blood. Bloods were centrifuged at 10,000× g for 5 min. Each tissue (0.2 g) was homogenized with 2 mL water. The plasma samples and the homogenates were then processed and determined by the method described above. The concentration was determined by the calibration curve and the actual concentration was corrected by multiplying by 10 according to the dilution times. […]
4. The distribution of CA4P and CA4 in tumor bearing mice.
The nude mice (BALB/cA) implanted with NCI-H460 tumor were provided by Shanghai institute of Materia Medica. A total of 36 mice were divided into 9 groups with 4 animals in each group.
After fasted overnight with free access to water, the mice were treated with 75 mg/kg CA4P by i.v.
The blood samples were collected at 2, 10, 20, 40 min, 1, 2, 4, 8, 12 h after treatment and the mice were anaesthetized and decapitated to obtain the blood and tumor tissue. All procedure are same as C118P in the main text. The concentration was determined by the calibration curve and the actual concentration was corrected by multiplying by 10 according to the dilution times.

[5] = 0.17 h after i.v. 75 mg/kg of C118P, n = 4
[6] = 1 h after i.v. 75 mg/kg of C118P, n = 4
[7] = 4 h after i.v. 75 mg/kg of C118P, n = 4
[8] = 12 h after i.v. 75 mg/kg of C118P, n = 4
[9] = 0.17 h after i.v. 75 mg/kg of C118P, n = 4, in ng/g

SMILES: COc1cc(OC)cc(-c2nc[nH]c2-c2ccc(OC)c(OP(=O)([O-])[O-])c2)c1.[Na+].[Na+] [C118P]
- fraction unbound at 1 h, 400 ng/mL ([1]; C118P 400 ng/mL): 0.032 ± 0.001
- fraction unbound at 1 h, 4000 ng/mL ([1]; C118P 4000 ng/mL): 0.029 ± 0.001
- fraction unbound at 1 h, 40000 ng/mL ([1]; C118P 40,000 ng/mL): 0.024 ± 0.001
- fraction unbound at 1 h, 400000 ng/mL ([1]; C118P 400,000 ng/mL): 0.122 ± 0.006
- stability in liver microsomes ([2]; human liver microsomes (Figure S1)): quite stable
- tissue concentration ([3]; 10 min, 1 h and 4 h after i.v. 20 mg/kg of C118P, LLOQ 50 ng/g for tissues): below or slightly higher than the LLOQ
- concentration in Lung [4, 5]: 130.2 ± 7.5
- concentration in Plasma [4, 5]: 5199.4 ± 2147.9
- concentration in Tumor [4, 5]: 115.8 ± 24.1
- concentration in muscle [4, 5]: 355.4 ± 64.1
- concentration in Plasma [4, 6]: 191.2 ± 60.5
- concentration in Tumor [4, 6]: 73.0 ± 15.0
- concentration in Plasma [4, 7]: 14.7 ± 8.4
- concentration in Tumor [4, 7]: 26.7 ± 0.0
- concentration in Plasma [4, 8]: 6.1 ± 0.0

SMILES: COc1cc(OC)cc(-c2nc[nH]c2-c2ccc(OC)c(O)c2)c1 [C118]
- fraction unbound at 1 h, 200 ng/mL ([1]; pooled plasma, C118 200 ng/mL): 0.077 ± 0.008
- fraction unbound at 1 h, 2000 ng/mL ([1]; pooled plasma, C118 2000 ng/mL): 0.065 ± 0.003
- fraction unbound at 1 h, 20000 ng/mL ([1]; pooled plasma, C118 20,000 ng/mL): 0.055 ± 0.001
- CLint, in vitro ([2]; human liver microsomes): 58.2 μL·min^−1·mg^−1 Protein
- half-life ([2]; human liver microsomes, 1.0 mg protein/mL, C118 disappearance): 11.9 min
- CLint ([2]; human, scaled from CLint, in vitro): 47.9 mL/min/kg
- Extrapolated CLH ([2]; human, well-stirred liver model): 14.1 mL/min/kg
- tissue concentration in most tissues ([3]; 4 h after i.v. 20 mg/kg of C118P, LLOQ 50 ng/g for tissues): below or slightly higher than LLOQ
- concentration at 10 min ([3]; heart, read-out: tissue concentration in heart): 6340 ± 4130 ng/g
- concentration at 10 min ([3]; kidney, read-out: tissue concentration in kidney): 7640 ± 3410 ng/g
- concentration at 10 min ([3]; lung, read-out: tissue concentration in lung): 12900 ng/g
- concentration in muscle [4, 5]: 15,202.5 ± 8814.7
- concentration in ovary [4, 5]: 26,723.8 ± 18,229.6
- concentration in Lung [4, 9]: 26,923.2 ± 4389.0
- concentration in Tumor [4, 9]: 14,563.3 ± 1989.9
- concentration in brain [4, 9]: 3562.8 ± 796.6
- concentration in Plasma ([4]; 0.17 h after i.v. 75 mg/kg of C118P, n = 4, in ng/mL): 26,048.0 ± 2429.7
- concentration in Lung [4, 6]: 1852.3 ± 929.3
- concentration in Plasma [4, 6]: 1730.0 ± 986.4
- concentration in Tumor [4, 6]: 12,998.1 ± 4132.3
- concentration in brain [4, 6]: 1250.7 ± 351.3
- concentration in muscle [4, 6]: 946.8 ± 390.6
- concentration in ovary [4, 6]: 3308.6 ± 2611.1
- concentration in Lung [4, 7]: 231.3 ± 181.7
- concentration in Plasma [4, 7]: 132.6 ± 56.8
- concentration in Tumor [4, 7]: 4969.8 ± 3414.7
- concentration in brain [4, 7]: 109.1 ± 22.0
- concentration in muscle [4, 7]: 136.4 ± 2.8
- concentration in Tumor [4, 8]: 1327.7 ± 1124.0
